Data as given in ChEMBL document CHEMBL3886458 (2016).

Key:
[1] = target: T1, Poly [ADP-ribose] polymerase tankyrase-2 (Homo sapiens, UniProt Q9H2K2); assay: Biochemical Assay: The autoparsylation activity of the TNKS 1/2 or PARP1/2 enzymes was measured by the liquid chromatography-mass spectrometry (LC/MS) detection of nicotinamide as readout. Compound activity in inhibiting the TNKS and PARP autoparsylation was evaluated by IC50 measurements. In the compound screening assays, the reaction is composed of 5 uL of compound in […]-point serial …
T1 sequence (Q9H2K2 whole entry): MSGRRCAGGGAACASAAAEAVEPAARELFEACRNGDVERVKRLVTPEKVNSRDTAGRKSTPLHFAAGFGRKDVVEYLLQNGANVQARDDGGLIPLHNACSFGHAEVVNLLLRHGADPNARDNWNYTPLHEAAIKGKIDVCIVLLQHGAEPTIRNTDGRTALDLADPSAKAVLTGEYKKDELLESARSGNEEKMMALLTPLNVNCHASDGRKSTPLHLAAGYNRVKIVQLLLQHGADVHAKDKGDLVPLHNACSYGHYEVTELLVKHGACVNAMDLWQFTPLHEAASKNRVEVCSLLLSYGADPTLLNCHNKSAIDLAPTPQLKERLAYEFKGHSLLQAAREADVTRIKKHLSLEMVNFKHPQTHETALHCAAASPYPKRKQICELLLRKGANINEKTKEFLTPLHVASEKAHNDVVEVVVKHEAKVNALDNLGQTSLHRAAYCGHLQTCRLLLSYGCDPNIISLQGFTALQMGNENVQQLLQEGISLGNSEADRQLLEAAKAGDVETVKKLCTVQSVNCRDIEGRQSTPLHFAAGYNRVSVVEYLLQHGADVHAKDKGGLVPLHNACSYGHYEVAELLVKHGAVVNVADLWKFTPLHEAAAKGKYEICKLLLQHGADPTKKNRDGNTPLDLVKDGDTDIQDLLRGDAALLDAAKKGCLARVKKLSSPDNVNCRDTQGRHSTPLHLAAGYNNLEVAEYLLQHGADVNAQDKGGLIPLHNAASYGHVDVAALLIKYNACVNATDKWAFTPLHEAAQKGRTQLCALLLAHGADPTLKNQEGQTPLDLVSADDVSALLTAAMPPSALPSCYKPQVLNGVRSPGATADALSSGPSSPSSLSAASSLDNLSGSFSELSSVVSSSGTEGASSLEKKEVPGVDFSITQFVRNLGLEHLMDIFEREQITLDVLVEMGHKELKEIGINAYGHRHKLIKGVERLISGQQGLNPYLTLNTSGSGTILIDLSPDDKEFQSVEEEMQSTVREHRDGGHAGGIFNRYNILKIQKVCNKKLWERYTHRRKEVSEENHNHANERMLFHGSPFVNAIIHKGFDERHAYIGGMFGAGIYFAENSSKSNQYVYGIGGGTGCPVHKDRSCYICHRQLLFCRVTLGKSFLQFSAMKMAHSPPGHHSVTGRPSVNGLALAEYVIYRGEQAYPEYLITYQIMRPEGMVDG

[2] = target: T2, Poly [ADP-ribose] polymerase tankyrase-1 (Homo sapiens, UniProt O95271); assay: as above
T2 sequence (O95271 whole entry): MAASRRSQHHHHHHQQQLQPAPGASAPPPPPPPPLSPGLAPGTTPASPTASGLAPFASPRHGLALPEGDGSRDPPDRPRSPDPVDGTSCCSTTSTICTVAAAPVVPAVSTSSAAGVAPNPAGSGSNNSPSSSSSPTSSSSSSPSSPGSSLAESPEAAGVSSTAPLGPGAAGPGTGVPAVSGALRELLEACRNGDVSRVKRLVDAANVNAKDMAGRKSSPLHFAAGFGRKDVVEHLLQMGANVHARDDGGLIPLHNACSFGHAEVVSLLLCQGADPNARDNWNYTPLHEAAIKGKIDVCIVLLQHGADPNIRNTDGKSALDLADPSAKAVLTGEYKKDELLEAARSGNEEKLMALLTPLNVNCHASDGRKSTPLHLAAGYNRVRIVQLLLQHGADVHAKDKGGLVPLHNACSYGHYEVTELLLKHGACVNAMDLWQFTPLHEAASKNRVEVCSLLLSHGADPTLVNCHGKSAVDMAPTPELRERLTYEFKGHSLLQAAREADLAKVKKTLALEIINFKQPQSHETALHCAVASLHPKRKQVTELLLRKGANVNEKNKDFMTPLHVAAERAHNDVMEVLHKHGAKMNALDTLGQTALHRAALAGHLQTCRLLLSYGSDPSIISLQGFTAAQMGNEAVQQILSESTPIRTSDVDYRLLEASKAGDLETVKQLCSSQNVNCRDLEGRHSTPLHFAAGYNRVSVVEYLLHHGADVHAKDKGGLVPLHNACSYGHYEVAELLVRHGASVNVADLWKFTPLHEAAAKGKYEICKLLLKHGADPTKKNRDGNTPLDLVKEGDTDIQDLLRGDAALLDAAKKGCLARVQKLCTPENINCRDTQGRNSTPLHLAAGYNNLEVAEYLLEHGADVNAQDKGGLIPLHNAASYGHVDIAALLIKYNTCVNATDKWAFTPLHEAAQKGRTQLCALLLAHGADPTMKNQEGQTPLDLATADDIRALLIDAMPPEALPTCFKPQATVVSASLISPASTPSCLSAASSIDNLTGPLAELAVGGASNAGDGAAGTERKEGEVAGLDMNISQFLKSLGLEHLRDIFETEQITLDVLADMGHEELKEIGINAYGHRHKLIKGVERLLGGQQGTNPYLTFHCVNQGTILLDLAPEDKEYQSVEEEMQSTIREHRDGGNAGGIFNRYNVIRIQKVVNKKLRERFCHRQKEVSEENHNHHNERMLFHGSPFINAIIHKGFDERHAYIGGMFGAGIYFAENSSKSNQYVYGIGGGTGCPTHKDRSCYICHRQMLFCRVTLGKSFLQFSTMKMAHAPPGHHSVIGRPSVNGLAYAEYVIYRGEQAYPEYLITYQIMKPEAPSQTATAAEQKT

## O=C(CCc1c[nH]c2ccccc12)N(Cc1nc2c(c(=O)[nH]1)COCC2)Cc1cccs1
[1]
  IC50: 1.58 µM
[2]
  IC50: 6.4 µM

## O=c1[nH]c(CN(Cc2cccs2)S(=O)(=O)Cc2ccccc2)nc2c1COCC2
[1]
  IC50: 0.177 µM
[2]
  IC50: 1.16 µM

## O=c1[nH]c(CN(Cc2cccs2)S(=O)(=O)CCc2ccccc2)nc2c1COCC2
[1]
  IC50: 0.91 µM
[2]
  IC50: 5.12 µM
